Here are results for six molecules from patent US10682397B2, “Methods of treating fragile X syndrome and related disorders” (Massachusetts Institute of Technology, priority 2015, dated 2020).

Entries after “also recorded” stand apart in the source; their conditions may differ.

One data set concerns mice. The experiment in a line: MK801-induced hyperlocomotion in the open field. Format: in vivo. The conditions noted are these: for MK801-induced hyperlocomotion: MTEP 10 mg/kg i.p. pre-treatment, MK801 0.3 mg/kg. As to the method:
To determine the effects of genotype on MK801-induced hyperlocomotion, mice were habituated in the open field (40 cm×40 cm×40 cm box) for 60 min, followed by the administration of vehicle or MK801 and locomotor activity was recorded for another 60 mM. To determine the effects of MTEP by genotype on MK801-induced hyperlocomotion, mice were habituated in the open field for 30 min, followed by the intraperitoneal (i.p.) administration of MTEP (10 mg/kg at a dosing volume of 10 ml/kg). After an additional 30 mM, MK801 (0.3 mg/kg at a dosing volume of 10 ml/kg) was administered i.p. and locomotor activity was recorded for another 60 mM. The time course of drug-induced changes in ambulation was expressed as cm traveled/5 mM over the 120-min session. Sessions were recorded using Plexon's CINEPLEX® Studio and analyzed using Plexon's CINEPLEX® Editor and code written in MATLAB. MK801-induced locomotor activity was scored and analyzed using the average of the final 5 minutes (minute 115-120) per cohort.

Data set [1] deals with hippocampal slices. Nature of the data set: mGlu-LTD (DHPG-induced) field recordings in hippocampal slices. In kind it is cell-based, mice. As to the method:
Slices were prepared as described previously (Dolen et al., Neuron 6, 955-56 (2007)). Acute hippocampal slices (350 μm) were prepared from P28-35 animals in ice-cold dissection buffer containing (in mM): NaCl 87, Sucrose 75, KCl2.5, NaH2PO4 1.25, NaHCO3 25, CaCl2 0.5, MgSO4 7, Ascorbic acid 1.3, and D-glucose 10 (saturated with 95% O2/5% CO2). Immediately following slicing the CA3 region was removed. Slices were recovered in artificial cerebrospinal fluid (aCSF) containing (in mM): NaCl 124, KCl5, NaH2PO4 1.23, NaHCO3 26, CaCl2 2, MgCl2 1, and D-glucose 10 (saturated with 95% O2/5% CO2) at 32.5° C. for ≥3 hours prior to recording.
Field recordings were performed in a submersion chamber, perfused with aCSF (2-3 ml/min) at 30° C. Field EPSPs (fEPSPs) were recorded in CA1 stratum radiatum with extracellular glass electrodes (1-2 MΩ) filled with aCSF. Baseline responses were evoked by stimulation of the Schaffer collaterals at 0.033 Hz with a 2-contact cluster electrode (FHC) using a 0.2 ms stimulus yielding 40-60% of the maximal response. fEPSP recordings were filtered at 0.1 Hz-1 kHz, digitized at 10 kHz, and analyzed using pClamp9 (Axon Instruments). […]
Paired pulse facilitation was induced by applying two pulses at different interstimulus intervals. Facilitation was measured by the ratio of the fEPSP slope of stimulus 2 to stimulus 1. […]

In the next data set the test system is hippocampal neurons. The experiment in a line: Fluorescence-based calcium imaging in brain slices (Fluo-4 AM). In kind it is cell-based, mice. Conditions: DHPG 25 μM. How it is done:
Hippocampal slices were prepared as described for electrophysiology experiments and recovered in aCSF for 2 hours at 32° C. Slices were then moved to a small recovery chamber and incubated in oxygenated aCSF containing 20 μM fluo-4-acetoxymethyl ester (fluo-4 AM; ThermoFisher) and 0.1% Pluronic F-127 (ThermoFisher) for 1 hour in the dark. After 1 hour, slices were then washed with oxygenated aCSF containing 1 μM tetrodotoxin (Abcam) and 50 μM D-AP5 (Tocris) for 20 minutes in a recording chamber. A low-powered (4×) objective was used to identify the brain region of interest. CA1 pyramidal neurons were visualized using a 40× water immersion objective and a Nikon Eclipse E600FN microscope.
Changes in Ca^2+ fluorescence were monitored in the presence of 1 μM tetrodotoxin and 50 μM D-AP5 using a Hamamatsu ORCA-100 camera, HClmage software (Hamamatsu), and a mercury arc-lamp and power supply (Nikon). After a 10 second baseline, 25 μM (S)-3,5-DHPG was bath applied. […] Data were analyzed using Image J software. Increases in Ca^2+ mobilization in hippocampal neurons were reported as changes in relative fluorescence divided by the baseline fluorescence (ΔF/F).
To assay the integrity of Gq signaling, calcium mobilization in hippocampal slices from WT and Arrb2^+/− animals was measured using the cell-permeable calcium fluorescent dye Fluo4-AM. […]

Data set [2] has as its system hippocampal slices. The experiment in a line: Metabolic labeling of new protein synthesis (35S-Met/Cys incorporation) in hippocampal slices. Format: cell-based, mice. The conditions noted are these: CDPPB 10 μM, 30 min. As to the method:
Metabolic labeling of new protein synthesis was performed as previously described (Osterweil et al., J. Neurosci. 46, 15616-27 (2010)). Male P28-P32 littermate mice were anesthetized with isoflurane and the hippocampus was rapidly dissected into ice-cold aCSF (in mM: 124 NaCl, 3 KCl, 1.25 NaH2PO4, 26 NaHCO3, 10 dextrose, 1 MgCl2, 2 CaCl2, saturated with 95% O2 and 5% CO2). Hippocampal slices (500 μm) were prepared using a Stoelting Tissue Slicer and transferred into 32.5° C. aCSF (saturated with 95% O2 and 5% CO2) within 5 mM. Slices were incubated in aCSF undisturbed for 3.5-4 h to allow for recovery of basal protein synthesis. Actinomycin D (25 μM) and vehicle or CDPPB (10 μM) was then added to the recovery chamber for 30 mM to inhibit transcription and stimulate mGlu receptors, respectively after which slices were transferred to fresh aCSF containing ˜10 mCi/ml [^35S] Met/Cys (Perkin Elmer) for an additional 30 mM Slices were then homogenized, and labeled proteins isolated by TCA precipitation. Samples were read with a scintillation counter and subjected to a protein concentration assay (Bio-Rad). Data was analyzed as counts per minute per microgram of protein, normalized to the [^35S] Met/Cys aCSF used for incubation and the average incorporation of all samples analyzed and then normalized to percent wild-type for each experiment. Statistical significance was determined using unpaired t-tests.
To determine the role of β-arrestin2 in mGlu5-mediated protein synthesis, hippocampal slices from male Arrb2^+/− and wild-type (WT) littermates were stimulated with a selective […] positive modulator of mGlu5, 3-Cyano-N-(1,3-diphenyl-1H-pyrazol-5-yl) benzamide (CDPPB, 10 μM, 30 minutes), and the incorporation of ^35S-methionine/cysteine into new protein was measured. mGlu5 activation caused a parallel increase in protein synthesis (FIG. 1A) and ERK1/2 phosphorylation (FIG. 1B) in WT slices, which were both absent in slices from Arrb2^+/− mice. […]

The next data set deals with ERK1/2. The experiment in a line: Immunoblotting of ERK1/2 phosphorylation in hippocampal slices. In kind it is cell-based, mice. The conditions noted are these: CDPPB 10 μM, 30 min. How it is done:
(§1) Hippocampal slices were prepared and recovered as described in metabolic labeling experiments. Sets of slices were stimulated with CDPPB (10 μM) for 30 minutes and then flash frozen in liquid nitrogen immediately after stimulation, prior to processing. Yoked unstimulated slices were also processed to assess basal signaling levels Immunoblotting was performed according to established methods using primary antibodies to p-ERK1/2 (Thr202/Tyr204) (Cell Signaling Technology), ERK1/2 (Cell Signaling Technology), p-Akt (Ser473) (Cell Signaling Technology), Akt (Cell Signaling Technology), […] (Cell Signaling Technology) and S6 (Cell Signaling Technology). Protein levels were measured by densitometry (Quantity One), and quantified as the densitometric signal of phospho-protein divided by the total protein signal in the same lane.
On the technique in general: In western blotting, separated proteins are transferred to a membrane and probed.

The next data set relates to AKT. The experiment in a line: Immunoblotting of AKT phosphorylation in hippocampal slices. Conditions: 10 μM CDPPB. Format: cell-based, mice. How it is done:
as §1

The next data set has as its system ribosomal protein S6. Nature of the data set: Immunoblotting of ribosomal protein S6 phosphorylation in hippocampal slices. In kind it is cell-based, mice. The conditions noted are these: 10 μM CDPPB. How it is done:
as §1

For `C[C@]12N[C@H](Cc3ccccc31)c1ccccc12` [MK801], in the data set on mice (MK801 0.3 mg/kg i.p., 60 minutes post-treatment, WT and Arrb2+/− mice (comparable)), the “Locomotor activity compared to vehicle” value is recorded as “hyperlocomotion”.

In the case of `C[C@@H]1C[C@@H]([C@H](O)CC2CC(=O)NC(=O)C2)C(=O)[C@@H](C)C1` [cycloheximide], the “DHPG-LTD (25 μM, 5 min) magnitude” value in the data set on hippocampal slices [1] (Arrb2+/− slices, cycloheximide 60 μM, listed as CHX) is “unaffected; also recorded: no effect”; in the data set with hippocampal slices [1] (WT slices, cycloheximide 60 μM pretreatment), “significantly diminished; also recorded: significantly attenuated”.

For the molecule `Cc1nc(C#Cc2cccnc2)cs1` [MTEP, 3-[(2-Methyl-1,3-thiazol-4-yl)ethynyl]-pyridine], the MK801-induced hyperlocomotion result is “continues to exacerbate; also recorded: potentiates” in the data set with mice (Arrb2+/− mice) and “significantly potentiates” in the data set on mice (WT mice).

In the case of `N[C@H](C(=O)O)c1cc(O)cc(O)c1` [DHPG, (S)-3,5-Dihydroxyphenylglycine], the “Ca2+-mediated fluorescence” value with hippocampal neurons (1 min, WT and Arrb2+/− slices (not significantly different)) was “rapid increase”.

As for `N#Cc1cccc(C(=O)Nc2cc(-c3ccccc3)nn2-c2ccccc2)c1` [CDPPB, 3-Cyano-N-(1,3-diphenyl-1H-pyrazol-5-yl) benzamide], the “Protein synthesis compared with vehicle” value is listed as “similarly elevated” in the data set with hippocampal slices [2] (Arrb1+/− slices), “no effect” in the data set on hippocampal slices [2] (Arrb2+/− slices) and “similarly elevated” in the data set with hippocampal slices [2] (WT slices). Moreover, the “ERK1/2 phosphorylation compared with vehicle” value with ERK1/2 (Arrb1+/− slices) was “elevated”; with ERK1/2 (Arrb2+/− slices) it was “no change”; in the data set with ERK1/2 (WT slices), “elevated”. For the same molecule, the “AKT phosphorylation compared with vehicle” value in the data set with AKT (WT and Arrb1+/− slices) is reported as “Neither WT nor Arrb1^+/− slices stimulated with CDPPB show elevated AKT phosphorylation”; in the data set on AKT (WT and Arrb2+/− slices) it was “Neither WT nor Arrb2^+/− slices stimulated with CDPPB show elevated AKT phosphorylation”. In addition, the “S6 phosphorylation compared with vehicle” value is listed as “Neither WT nor Arrb1^+/− slices stimulated with CDPPB show elevated S6 phosphorylation” with ribosomal protein S6 (WT and Arrb1+/− slices); “Neither WT nor Arrb2^+/− slices stimulated with CDPPB show elevated S6 phosphorylation” in the data set on ribosomal protein S6 (WT and Arrb2+/− slices).

`COc1ccc2c(c1)CC[C@@H]1[C@@H]2CC[C@]2(C)[C@@H](NCCCCCCN3C(=O)C=CC3=O)CC[C@@H]12` [U73122]: in the data set with hippocampal neurons (pretreatment with 10 μM U73122, data not shown), the “DHPG-induced changes in calcium fluorescence” value is “completely blocked”.
